In patent US20120083464A1, “NEUROPROTECTIVE PROPERTIES OF 5'-METHYLTHIOADENOSINE” (priority 2009, published 2012):
“Also recorded” adds a separate entry of the source.

Key:
[1] = system: Corticospinal tract-YFP mice with chronic EAE; experiment: Chronic EAE (model of progressive multiple sclerosis), clinical score and axonal density; assay type: in vivo, mice (C57B6 background)
Source text: Chronic EAE was induced in Corticospinal tract-YFP mice (C57B6 background; see Bareyre et al., Nat Med. 2005 December; 11(12):1355-60) immunized with MOG. The fluorescence labelling of motor axons, allows an accurate quantification of axonal damage during EAE.
1. Align spinal cords of all animals and cut out the following pieces of the spinal cord at the same level in all animals: a) a piece of the cervical spinal cord (about 1 cm in length) starting around at the upper cervical level around C1/2 (this will allow you to determine the number of CST fibers that enter the spinal cord); b) a piece of the lumbar spinal cord (about 1 cm in length) starting around the mid-lumbar level L2/3 (this will allow you to determine the number of fibers that reach the lumbar spinal cord).
5. Mount the tissue and analyze the sections using confocal microscopy—use a high-resolution objectives e.g. a 60× oil objective and take a single image plan covering the entire corticospinal tract.
6. Then simple count the number of dots (=number of fibers)—we usually do this blinded on 3-5 sections and then calculate the average for the CST as the CST—especially in the cervical spinal cord which contains many fibers it might be easier to estimate the total number of cervical CST fibers based on counts of several CST areas with a defined size. […]

[2] = system: oligodendrocytes derived from the optic nerve; experiment: Oligodendrocyte excitotoxicity with AMPA; assay type: cell-based, Sprague Dawley rats; settings: MTA 100-300 μM
Protocol: Primary cultures of oligodendrocytes derived from optic nerves of 12-d-old Sprague Dawley rats were obtained as described previously (Barres et al., 1992). Cells were seeded into 24-well plates bearing 12-mm-diameter coverslips coated with poly-D-lysine (10 μg/ml) at a density of 5×10^3 cells per well. Cells were maintained at 37° C. and 5% CO2 in a chemically defined medium (Barres et al., 1992, Cell 70:31-46). After 2-4 d in vitro, cultures were composed of at least 98% O4/galactocerebroside-positive (O4/Ga1C_) cells; the majority of the remaining cells were stained with antibodies to glial fibrillary acidic protein (GFAP). No A2B5+ or microglial cells were detected in these cultures (Alberdi et al., 2002, Neurobiol Dis 9:234-243).
Cell toxicity and viability assays were performed as described previously (Sánchez-Gómez and Matute, 1999, Neurobiol Dis 6:475-485). For evaluating the MTA toxicity, cells at 2-4 d in culture were exposed for 24 hours to that drug and cell viability assessed using calcein-AM (Invitrogen). […] Twenty-four hours after drug application, cell viability was assessed using calcein-AM (Invitrogen). The total number of surviving cells on each coverslip emitting calcein fluorescence was counted, and results were expressed as percentage of cell death versus control. Results were expressed as the mean±SEM of at least three independent experiments performed in duplicate. […]

CA1 hippocampal neurons = experiment: Global ischemia (four-vessel occlusion, 10 min), Fluoro jade staining; assay type: in vivo, Wistar rats; settings: P<0.01
Protocol: Before surgical procedures, animals were fasted overnight. The rats were subjected to middle cerebral artery occlusion (MCAO) for 90 min using the intraluminal filament model as described previously (Rickhag et al, 2006; J Neurochem 96:14-29). Blood flow was monitored transcraneally with a doppler laser (Perimed). All physiologic parameters of animals included in the study were within normal ranges and included animals showing typical ischemia-induced behavioral deficits, rotational asymmetry, and dysfunctional limb placement. Rectal and body temperature was maintained at 37° C. during surgery and ischemia with a heating pad. Transient forebrain ischemia was induced by occlusion of the vertebral and common carotid arteries for 10 min according to the method described by Pulsinelli and Brierley (1979; Stroke 10, 267-272.). Criteria for forebrain ischemia were bilateral loss of the righting reflex, paw extension and mydriasis. […]
The animals were treated with MTA (30 or 100 mg/kg i.p.), twice daily reconstituted in Tris 300 mM, or placebo (Tris 300 mM) starting at 30 min of the onset of ischemia. […]

In the case of CSC[C@H]1O[C@@H](n2cnc3c(N)ncnc32)[C@H](O)[C@@H]1O [MTA, 5′-methylthioadenosine], the “clinical symptoms (EAE clinical score) versus placebo” value ([1]; MTA 96 μMol/Kg i.p. daily from first day with EAE score of 2 or higher) is reported as “amelioration of the clinical symptoms”, the “axonal density in lumbar and cervical spinal cord versus placebo” value ([1]; MTA 96 μMol/Kg i.p. daily, chronic phase) is reported as “significantly higher axonal density” and the “protection of oligodendrocytes from excitotoxic insult” value ([2]; AMPA 10 μM) is reported as “robust protective activity; also recorded: protects”. For the same compound, the “protection of oligodendrocytes from excitotoxic insult” value ([2]; AMPA 100 μM (necrotic death)) was “no protection; also recorded: does not protect”, the “CA1 hippocampal neuron cell death (Fluoro jade fluorescence)” value (CA1 hippocampal neurons; 10 min global ischemia, MTA i.p. twice daily from 30 min post-ischemia, 7 days) was “protects” and the “lower levels of dying cells in the CA1 region versus vehicle (Fluoro jade)” value (CA1 hippocampal neurons; MTA 30 mg/kg i.p. twice daily, 7 days of reperfusion) was “about 50%”.
